This is an account of results in ChEMBL document CHEMBL2321731, “Structure-Based Design of Irreversible Human KAT II Inhibitors: Discovery of New Potency-Enhancing Interactions” (ACS Med Chem Lett, 2013).

Activity calls are given as the source filed them. The rule behind the calls is not given here.

Series [1] has as its target T1, Kynurenine/alpha-aminoadipate aminotransferase, mitochondrial (Homo sapiens, UniProt Q8N5Z0). The series is described as follows: Irreversible inhibition of human KAT2 using L-kynurenine as substrate measured every 5 mins over 16 hrs by SpectraMax plate reader analysis.
The target of series [2] is Kynurenine--oxoglutarate transaminase 3 (Homo sapiens, UniProt Q6YP21). The series is described as follows: Inhibition of human KAT3 using L-kynurenine as substrate measured after 24 hrs by SpectraMax plate reader analysis.
Kynurenine--oxoglutarate transaminase 3, sequence (Q6YP21 whole entry): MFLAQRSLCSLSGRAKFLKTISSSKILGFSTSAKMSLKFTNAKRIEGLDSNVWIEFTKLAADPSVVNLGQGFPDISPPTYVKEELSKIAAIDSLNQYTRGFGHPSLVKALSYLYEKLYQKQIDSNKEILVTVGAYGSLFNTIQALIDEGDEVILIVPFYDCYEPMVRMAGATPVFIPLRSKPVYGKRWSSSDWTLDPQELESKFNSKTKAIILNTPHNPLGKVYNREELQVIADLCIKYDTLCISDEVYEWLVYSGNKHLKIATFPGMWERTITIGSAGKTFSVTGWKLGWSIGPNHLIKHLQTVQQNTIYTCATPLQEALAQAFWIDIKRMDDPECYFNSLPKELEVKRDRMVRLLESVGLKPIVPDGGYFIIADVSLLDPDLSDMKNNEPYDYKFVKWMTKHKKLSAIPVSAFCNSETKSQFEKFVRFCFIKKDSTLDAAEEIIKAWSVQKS
The target in series [3] is Kynurenine/alpha-aminoadipate aminotransferase, mitochondrial (Rattus norvegicus) (UniProt Q64602). Description: Ratio of Kinact to Ki for rat KAT2 using L-kynurenine as substrate by SpectraMax plate reader analysis.
Kynurenine/alpha-aminoadipate aminotransferase, mitochondrial (Rattus norvegicus), sequence (Q64602 30-425 limits assumed): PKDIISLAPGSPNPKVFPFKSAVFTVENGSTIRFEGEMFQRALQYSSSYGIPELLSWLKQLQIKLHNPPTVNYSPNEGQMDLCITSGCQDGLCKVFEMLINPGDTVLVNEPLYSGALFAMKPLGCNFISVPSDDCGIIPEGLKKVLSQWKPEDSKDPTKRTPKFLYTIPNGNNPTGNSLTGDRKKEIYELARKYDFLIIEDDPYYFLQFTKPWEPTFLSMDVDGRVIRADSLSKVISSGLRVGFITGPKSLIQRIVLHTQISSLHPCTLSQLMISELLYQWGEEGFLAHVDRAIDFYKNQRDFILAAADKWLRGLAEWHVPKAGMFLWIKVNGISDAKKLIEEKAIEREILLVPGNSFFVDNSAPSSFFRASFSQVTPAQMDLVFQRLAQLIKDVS
In series [4] the target is T1, Kynurenine/alpha-aminoadipate aminotransferase, mitochondrial. Description: Ratio of Kinact to Ki for human KAT2 using L-kynurenine as substrate by SpectraMax plate reader analysis.
Target sequence in this assay (Q8N5Z0 30-425 limits assumed): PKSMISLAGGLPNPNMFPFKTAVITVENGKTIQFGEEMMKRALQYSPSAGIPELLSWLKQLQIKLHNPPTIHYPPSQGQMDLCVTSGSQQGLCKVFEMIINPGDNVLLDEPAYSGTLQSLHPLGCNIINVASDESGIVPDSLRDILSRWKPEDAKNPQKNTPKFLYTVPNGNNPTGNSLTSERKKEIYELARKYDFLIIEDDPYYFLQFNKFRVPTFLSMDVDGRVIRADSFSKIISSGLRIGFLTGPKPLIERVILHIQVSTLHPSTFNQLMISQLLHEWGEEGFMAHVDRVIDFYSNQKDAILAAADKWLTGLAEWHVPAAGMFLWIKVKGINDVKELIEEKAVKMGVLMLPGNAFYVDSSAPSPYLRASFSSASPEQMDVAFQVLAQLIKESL
The test system of series [5] is Kynurenine/alpha-aminoadipate aminotransferase, mitochondrial (Homo sapiens), Q8N5Z0 [K240S,F241G]. The series is described as follows: Binding affinity to C-terminal hexa histidine tagged full length human KAT2 K240S/F241G mutant harboring C-terminal thrombin cleavage site at 1 mM after 2 hrs by X-ray crystallography in presence of 2 mM PLP.
Kynurenine/alpha-aminoadipate aminotransferase, mitochondrial (Homo sapiens), Q8N5Z0 [K240S,F241G], sequence (Q8N5Z0 whole entry K240S/F241G): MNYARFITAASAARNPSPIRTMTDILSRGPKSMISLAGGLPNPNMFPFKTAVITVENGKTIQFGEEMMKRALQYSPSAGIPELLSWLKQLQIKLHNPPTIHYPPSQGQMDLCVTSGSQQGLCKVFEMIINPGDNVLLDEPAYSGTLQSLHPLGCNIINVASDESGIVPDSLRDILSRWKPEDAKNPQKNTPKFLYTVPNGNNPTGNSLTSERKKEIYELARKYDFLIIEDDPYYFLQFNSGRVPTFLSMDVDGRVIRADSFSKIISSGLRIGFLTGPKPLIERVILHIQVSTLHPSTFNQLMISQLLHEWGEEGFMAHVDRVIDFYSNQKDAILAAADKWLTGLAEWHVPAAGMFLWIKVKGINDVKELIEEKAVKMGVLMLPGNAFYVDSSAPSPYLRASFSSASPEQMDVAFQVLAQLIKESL
Series [6] concerns the target T2, Kynurenine--oxoglutarate transaminase 1 (Homo sapiens, UniProt Q16773).
T2 sequence (Q16773 whole entry): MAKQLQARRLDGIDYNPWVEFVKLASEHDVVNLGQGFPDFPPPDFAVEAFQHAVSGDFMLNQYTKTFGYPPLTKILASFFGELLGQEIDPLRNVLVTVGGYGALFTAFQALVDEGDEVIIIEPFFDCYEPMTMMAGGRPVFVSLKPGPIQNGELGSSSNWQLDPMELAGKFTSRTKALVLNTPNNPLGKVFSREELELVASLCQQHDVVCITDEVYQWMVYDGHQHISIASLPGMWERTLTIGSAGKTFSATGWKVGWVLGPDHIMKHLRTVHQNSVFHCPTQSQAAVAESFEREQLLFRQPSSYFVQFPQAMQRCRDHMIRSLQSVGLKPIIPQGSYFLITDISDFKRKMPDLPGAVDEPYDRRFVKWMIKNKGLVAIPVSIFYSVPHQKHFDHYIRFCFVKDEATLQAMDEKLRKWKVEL
The series is described as follows: Inhibition of human KAT1 using L-kynurenine as substrate measured after 16 hrs by SpectraMax plate reader analysis.

The nature of series [7]: Unbound fraction in Sprague-Dawley rat brain at 10 mg/kg, sc by equilibrium dialysis method. The arrangement: dose 10 mg/kg, route subcutaneous. It is filed as ADME, organism-based.
The subject of another series is Rattus norvegicus. Description: Decrease in extracellular KYNA level in Sprague-Dawley rat prefrontal cortex at 10 mg/kg, sc measured for 4 hrs by microdialysis method. It is filed as functional, organism-based. Set-up: dose 10 mg/kg.
In series [8] the test system is Brain. The series is described as follows: fAUC in Sprague-Dawley rat brain at 10 mg/kg, sc by equilibrium dialysis method. Format: ADME, organism-based. Set-up: dose 10 mg/kg, route subcutaneous. The conditions noted are these: in vivo.
Series [9] deals with Brain. Description: AUC in Sprague-Dawley rat brain at 10 mg/kg, sc by LC-MS/MS analysis. Format: ADME, organism-based. The arrangement: dose 10 mg/kg, route subcutaneous. The conditions noted are these: in vivo.
Series [10] concerns the target T1, Kynurenine/alpha-aminoadipate aminotransferase, mitochondrial. The series is described as follows: Inhibition of human KAT2 using L-kynurenine as substrate measured after 15-20 hrs by SpectraMax plate reader analysis.
Target sequence in this assay (Q8N5Z0 whole entry): as the sequence (Q8N5Z0 whole entry K240S/F241G) above, with S240K, G241F counted along it
The subject of series [11] is Brain. Description: Ratio of hydroxamate fAUC to compound fAUC in Sprague-Dawley rat brain at 10 mg/kg, sc by equilibrium dialysis method. Set-up: dose 10 mg/kg, route subcutaneous. Format: ADME, organism-based. The note with it: in vivo.

For the compound `COc1ccc2c(c1)N(O)C(=O)[C@@H](N)C2`, the Ki in series [1] was 7.7 nM. The Kinact in series [1] stood at 0.0137 min⁻¹. The results for the IC50 in series [2] and in series [6] were 6400 nM and 15300 nM, respectively. Further, the results for the Ratio in [3] and in series [4] were 1840 and 31700, respectively. For the same compound, the outcome in [5] was Active.

In [1], `N[C@H]1Cc2ccccc2N(O)C1=O` displayed a Ki of 14.2 nM. The compound also came in with a Kinact in series [1] of 0.0156 min⁻¹. Besides, the figures for the 50% inhibitory concentration (IC50) in series [2] and in [6] were 9040 nM and 30400 nM, respectively. The fraction unbound in series [7] was determined as 0.393. Besides, the Ratio in series [3] was 573; in series [4], 18500. Moreover, the result in series [5] was Active. For the same compound, in the series with Rattus norvegicus, the inhibition entry is “Active”. This compound had a fAUC in the series with Brain [8] of 584 ng·h/g. In the series with Brain [9], the AUC was 1486 ng·h/g.

As to `N[C@H]1Cc2cc(Oc3ccccc3)ccc2N(O)C1=O`, the Ki in [1] is 7.1 nM. For the same compound, the Kinact in series [1] was 0.0108 min⁻¹. The figures for the 50% inhibitory concentration (IC50) in [2], in series [6] and in series [10] were 1230 nM, 2040 nM and 23 nM, respectively. In addition, in [7], the unbound share (fraction unbound) is 0.0099. For the same compound, the Ratio in [3] was found to be 9070; in series [4], 26800; in the series on Brain [11], 9. The result in series [5] was Active. In addition, the inhibition result in the series on Rattus norvegicus was “Active”. Also, the fAUC in the series with Brain [8] came to 65 ng·h/g. Further, in the series with Brain [9], the AUC was found to be 6602 ng·h/g.
